Converted amounts (≈) assume the structure as drawn.
Key:
[1] = Partition coefficient, log P of the compound; assay type: physicochemical; conditions: octanol/water
[2] = tested on: Mycobacterium tuberculosis; assay: Antimicrobial activity against Mycobacterium tuberculosis H37RV; assay type: functional
[3] = biological target: T1, Enoyl-[acyl-carrier-protein] reductase [NADH] (Mycobacterium tuberculosis, UniProt P9WGR1)
T1 sequence (P9WGR1 whole entry): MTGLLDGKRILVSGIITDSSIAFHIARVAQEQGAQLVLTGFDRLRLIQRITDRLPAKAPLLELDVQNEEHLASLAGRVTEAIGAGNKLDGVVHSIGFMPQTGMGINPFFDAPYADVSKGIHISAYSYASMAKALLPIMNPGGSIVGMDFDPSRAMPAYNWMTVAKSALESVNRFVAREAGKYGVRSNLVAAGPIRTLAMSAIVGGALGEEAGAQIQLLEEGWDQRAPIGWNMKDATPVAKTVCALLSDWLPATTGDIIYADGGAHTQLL
Description: Inhibition of Mycobacterium tuberculosis H37RV InhA

[4] = biological target: T1, Enoyl-[acyl-carrier-protein] reductase [NADH]; assay: Inhibition of 100 nM Mycobacterium tuberculosis H37RV InhA

Work on `CCCCCCc1ccc(Oc2cnccn2)c(O)c1` yielded a logP ([1]; read-out: LogP) of 4.76, an MIC90 [2] of 6.25 µg/mL (≈ 22.9 µM) and a Ki [3] of 1 nM.
`CCCCCCc1ccc(Oc2ccc(N)cc2)c(O)c1` showed a logP ([1]; read-out: LogP) of 4.93 and an MIC90 [2] of 12.5 µg/mL (≈ 43.8 µM).
`CCCCCCc1ccc(Oc2ccccc2[N+](=O)[O-])c(O)c1` showed a logP [1] of 5.5, an MIC90 [2] of 12.5 µg/mL (≈ 39.6 µM) and a Ki [3] of 1 nM.
Work on `CCCCCCc1ccc(Oc2ccc(NC(=O)C(=O)O)cc2)c(O)c1` yielded an MIC90 [2] greater than 200 µg/mL and a Ki [3] of 1 nM.
For `CCCCCCc1ccc(Oc2ccc(NC(C)=O)cc2)c(O)c1`, the MIC90 [2] was 50 µg/mL (≈ 153 µM) and the Ki [3] was 1 nM.
Work on `CCCCCCc1ccc(Oc2ccncc2)c(O)c1` yielded a logP ([1]; read-out: LogP) of 4.93, an MIC90 [2] of 3.13 µg/mL (≈ 11.5 µM) and a Ki [3] of 1 nM.
Work on `CCCCCCc1ccc(Oc2ccc(CN3CCN(C)CC3)cc2)c(O)c1` yielded an MIC90 [2] greater than 100 µg/mL and a Ki [3] of 1 nM.
`CCCCCCc1ccc(Oc2ccccc2N)c(O)c1` showed a logP ([1]; read-out: LogP) of 5.27 and an MIC90 [2] of 3.13 µg/mL (≈ 11 µM).
Compound `CCCCCCc1ccc(Oc2cccc(NC(=O)C(=O)O)c2)c(O)c1` has an MIC90 [2] of 130 µg/mL (≈ 364 µM), a Ki [3] of 1 nM and an IC50 [4] of 580 nM.
In the case of `CCCCCCc1ccc(Oc2ccc([N+](=O)[O-])cc2)c(O)c1`, the logP [1] is reported as 5.64, the MIC90 [2] is reported as 25 µg/mL (≈ 79.3 µM) and the Ki [3] is reported as 1 nM. It also gave an IC50 [4] of 90 nM.
For `CCCCCCc1ccc(Oc2ncccn2)c(O)c1`, the logP ([1]; read-out: LogP) was 4.46, the MIC90 [2] was 100 µg/mL (≈ 367 µM) and the Ki [3] was 1 nM.
In the case of `CCCCCCc1ccc(Oc2cccc([N+](=O)[O-])c2)c(O)c1`, the MIC90 [2] is reported as 12.5 µg/mL (≈ 39.6 µM).
With `CCCCCCc1ccc(Oc2cccc(NC(=O)c3ccno3)c2)c(O)c1` the logP ([1]; read-out: LogP) was 5.22, the MIC90 [2] was greater than 200 µg/mL and the Ki [3] was 1 nM. The IC50 [4] was 1200 nM.
`CCCCCCc1ccc(Oc2cccnc2)c(O)c1` gave an MIC90 [2] of 3.13 µg/mL (≈ 11.5 µM) and a Ki [3] of 1 nM.
In the case of `CCCCCCc1ccc(Oc2nc(OC)cc(OC)n2)c(O)c1`, the MIC90 [2] is reported as 100 µg/mL (≈ 301 µM) and the Ki [3] is reported as 1 nM.
Compound `CCCCCCc1ccc(Oc2ccccn2)c(O)c1` has a logP ([1]; read-out: LogP) of 5.06, a Ki [3] of 1 nM and an IC50 [4] of 11500 nM.
`CCCCCCc1ccc(Oc2ccccc2)c(O)c1` gave a logP ([1]; read-out: LogP) of 5.76, an MIC90 [2] of 2.1 µg/mL (≈ 7.77 µM) and a Ki [3] of 1 nM.
`CCCCCCc1ccc(Oc2ccccc2NC(=O)C(=O)O)c(O)c1` gave an MIC90 [2] of 100 µg/mL (≈ 280 µM), a Ki [3] of 1 nM and an IC50 [4] of 2360 nM.
Work on `CCCCCCc1ccc(Oc2cccc(N)c2)c(O)c1` yielded an MIC90 [2] of 100 µg/mL (≈ 350 µM) and a Ki [3] of 1 nM.
Compound `CCCCCCc1ccc(Oc2ccccc2NC(C)=O)c(O)c1` has a logP ([1]; read-out: LogP) of 5.28, an MIC90 [2] greater than 200 µg/mL and a Ki [3] of 1 nM. The IC50 [4] was 1550 nM.
`CCCCCCc1ccc(Oc2ccccc2CN2CCN(C)CC2)c(O)c1` gave a Ki [3] of 1 nM.
Work on `CCCCCCc1ccc(Oc2ccc(NC(=O)c3ccno3)cc2)c(O)c1` yielded a logP ([1]; read-out: LogP) of 5.15, an MIC90 [2] greater than 200 µg/mL and a Ki [3] of 1 nM.
With `CCCCCCc1ccc(Oc2ccccc2NC(=O)c2ccno2)c(O)c1` the logP ([1]; read-out: LogP) was 5.76, the MIC90 [2] was greater than 200 µg/mL and the Ki [3] was 1 nM.
In the case of `CCCCCCc1ccc(Oc2ncccn2)c(OC)c1`, the MIC90 [2] is reported as 75 µg/mL (≈ 262 µM) and the Ki [3] is reported as 1 nM.
Compound `CCCCCCc1ccc(Oc2cccc(NC(C)=O)c2)c(O)c1` has an MIC90 [2] of 100 µg/mL (≈ 305 µM), a Ki [3] of 1 nM and an IC50 [4] of 5600 nM.

Source: ChEMBL document CHEMBL1143085, “Synthesis and in vitro antimycobacterial activity of B-ring modified diaryl ether InhA inhibitors” (Bioorg Med Chem Lett, 2008)
